Results on 1 molecule are retold here after patent US20230100193A1, “NOVEL PHARMACEUTICAL FORMULATIONS CONTAINING INDIRUBIN AND DERIVATIVES THEREOF AND METHODS OF MAKING AND USING THE SAME” (Cytodigm, Inc., priority 2017, published 2023).

The structures appear in SMILES notation.

This data set is described as follows: Dissolution measurement after 30 minutes in 2% Tween 20 in PBS, HPLC of supernatant. The data set is classed as physicochemical. Particulars: after stirring for 30 minutes, centrifuged 14,000 rpm 15 min, HPLC 292 nm, 6-BIA 1.10 mg in 110 mL, nanoparticles approx. 1.32 mg/ml 6-BIA. On the procedure:
As a control, dissolution of 6-BIA without polymer was first tested. 1.10 mg of 6-BIA was added to 110 mL of 2% Tween 20 in PBS. After stirring for 30 minutes, 1 mL of the resulting suspension was immediately collected to an Eppendorf tube. The Eppendorf tube was centrifuged at 14,000 rpm for 15 min.
Encapsulated 6-BIA nanoparticles obtained in Example 4 were re-suspended in 2% Tween 20 in PBS to form a nanoparticle suspension containing approximately 1.32 mg/ml of 6-BIA in the nanoparticles. After stirring for 30 minutes, 1 mL of the resulting suspension was immediately collected to an Eppendorf tube. The Eppendorf tube was centrifuged at 14,000 rpm for 15 min.

Regarding `O=C1Nc2cc(Br)ccc2/C1=C1/Nc2ccccc2/C1=N\O` [Example 6-BIA, 6-bromoindirubin-3′-oxime], the “6-BIA concentration in supernatant (30-minute dissolution)” value was 3.89 µg/mL.
